“Also recorded” adds a separate entry of the source.
How the values were obtained:
[1] = test system: HCC29-0909A HCC patient-derived xenograft (co-expression of HER1, HER2 and HER3); assay: HCC patient-derived xenograft model HCC29-0909A in SCID mice, tumour volume; type: in vivo; settings: HCC29-0909A PDX in SCID mice
Description: A HCC patient-derived xenograft model in SCID mice (HCC29-0909A) with co-expression of HER1, HER2 and HER3 receptors [Cancer Res Aug. […] Dosing with varlitinib commenced when the tumours reached the size of approximately 100-150 mm^3. Bi-dimensional measurements are performed twice a week and tumour volumes are calculated based on the following formula: Tumour volume=[(Length)×(Width^2)×(p/6)].
Groups of mice were dosed as follows:
Group 1 control group received vehicle only
Group 2 received 25 mg/Kg of ASLAN001 BID (twice daily),
Group 3 received 50 mg/Kg of ASLAN001 BID (twice daily), and
Group 4 received 100 mg/Kg of ASLAN001 BID (twice daily).

[2] = test system: phosphorylation of HER1-3, RAS/RAF/MEK/MAPK, p70S6K, S6 ribosomal, 4EBP1, Cdc-2 and retinoblastoma; assay: Western blot analysis of tumour lysates from HCC29-0909A xenograft (pharmacodynamics); type: in vivo, SCID mice; settings: Western blot of tumour lysates after two and fourteen days of treatment
[3] = test system: HCC01-0708 HER2/HER3 co-expressing PDX model of HCC; assay: HCC patient-derived xenograft model HCC01-0708, tumour volume; type: in vivo; settings: HCC01-0708 PDX; 25, 50 or 100 mg/kg BID
MAPK pathway = assay: Pharmacodynamics in HCC01-0708 PDX model; type: in vivo; settings: after twelve days of treatment
HCC cell lines = assay: Early apoptosis in HCC cell lines (Muse Annexin V & Dead Cell Assay); type: cell-based; settings: all HCC cell lines tested; 48 hours of incubation
Description: (§1) An in vitro experiment was conducted to investigate whether varlitinib induced apoptosis in HCC cell lines. HCC cells were grown in cell culture medium with 10% FBS and with varying concentrations of varlitinib. Apoptosis profiles were analysed at 24 hour and 48 hour timepoints, using Muse Annexin V & Dead Cell Assay kit and Muse Cell Analyser. Early apoptosis cells (identified as Annexin V-PE positive and Dead Cell Marker negative) were measured and plotted.

Huh7-SorR cells = assay: Early apoptosis in sorafenib resistant cells (Muse Annexin V & Dead Cell Assay); type: cell-based; settings: high dose of varlitinib
Description: as §1

PLC/PRF/5 cells = assay: Apoptosis (AnnexinV) profile of PLC/PRF/5 cells; type: cell-based; settings: 48 hour culture, increasing concentration
Description: as §1

With C[C@@H]1COC(Nc2ccc3ncnc(Nc4ccc(OCc5nccs5)c(Cl)c4)c3c2)=N1 [varlitinib, (R)-N4-[3-Chloro-4-(thiazol-2-ylmethoxy)-phenyl]-N6-(4-methyl-4,5,-dihydro-oxazol-2-yl)-quinazoline-4,6-diamine] the tumor regression ([1]; 100 mg/kg BID) was “complete tumor regression”, the “tumour growth inhibition (tumour volume)” value ([1]; 25, 50 or 100 mg/kg BID) was “potently inhibited tumour growth; also recorded: dose-dependent tumour volume growth inhibition” and the “phosphorylation of HER1-3, RAS/RAF/MEK/MAPK, p70S6K, S6 ribosomal, 4EBP1, Cdc-2 and retinoblastoma” value [2] was “strongly inhibited”. For the same compound, the “tumour growth inhibition (tumour volume)” value [3] was “inhibited tumour growth; also recorded: dose-dependent tumour volume growth inhibition”, the “inhibition of the MAPK pathway” value (MAPK pathway) was “robust inhibition” and the “induction of early apoptosis (Annexin V-PE positive, Dead Cell Marker negative)” value (HCC cell lines) was “able to induce early apoptosis”. The early apoptosis (Huh7-SorR cells) was roughly 70% and the “percentage of apoptotic cells” value (PLC/PRF/5 cells) was “increase in percentage of apoptotic cells correlates with increasing varlitinib concentration”.

Source: patent US20190134034A1, “Method of Treating Liver Cancer” (ASLAN Pharmaceuticals Pte. Ltd., priority 2016, published 2019)
